The target in one experiment is PI4KIIIB (Bos taurus (Bovine), UniProt O02810). In words: PI4KIIIβ kinase assay (immunoprecipitated HA-tagged enzyme, [γ-32P]-ATP). The format is biochemical. Particulars: kinase activity.
Another experiment relates to HRV. In words: Rhinovirus antiviral assay. The settings on record: Human rhinovirus sp.; Table 5. The format is cell-based.
The next experiment concerns EV71. In words: EV71 antiviral assay. Type of experiment: cell-based. The settings on record: Enterovirus A, Table 5.

Molecules are shown by their SMILES. A value given as a limit tells only on which side of the number the result lay.

IC50 and EC50 data for 44 compounds are collected here from patent publication US11091472B2, “PI-kinase inhibitors with anti-infective activity” (The Board of Trustees of the Leland Stanford Junior …, priority 2016, dated 2021).

A word on the IC50: it is the point on the concentration scale where inhibition reaches its midpoint. As usually defined, the EC50 is the concentration needed to bring the measured effect to its halfway point. Read a high EC50 as weaker potency.

Chain of PI4KIIIB (O02810 whole entry): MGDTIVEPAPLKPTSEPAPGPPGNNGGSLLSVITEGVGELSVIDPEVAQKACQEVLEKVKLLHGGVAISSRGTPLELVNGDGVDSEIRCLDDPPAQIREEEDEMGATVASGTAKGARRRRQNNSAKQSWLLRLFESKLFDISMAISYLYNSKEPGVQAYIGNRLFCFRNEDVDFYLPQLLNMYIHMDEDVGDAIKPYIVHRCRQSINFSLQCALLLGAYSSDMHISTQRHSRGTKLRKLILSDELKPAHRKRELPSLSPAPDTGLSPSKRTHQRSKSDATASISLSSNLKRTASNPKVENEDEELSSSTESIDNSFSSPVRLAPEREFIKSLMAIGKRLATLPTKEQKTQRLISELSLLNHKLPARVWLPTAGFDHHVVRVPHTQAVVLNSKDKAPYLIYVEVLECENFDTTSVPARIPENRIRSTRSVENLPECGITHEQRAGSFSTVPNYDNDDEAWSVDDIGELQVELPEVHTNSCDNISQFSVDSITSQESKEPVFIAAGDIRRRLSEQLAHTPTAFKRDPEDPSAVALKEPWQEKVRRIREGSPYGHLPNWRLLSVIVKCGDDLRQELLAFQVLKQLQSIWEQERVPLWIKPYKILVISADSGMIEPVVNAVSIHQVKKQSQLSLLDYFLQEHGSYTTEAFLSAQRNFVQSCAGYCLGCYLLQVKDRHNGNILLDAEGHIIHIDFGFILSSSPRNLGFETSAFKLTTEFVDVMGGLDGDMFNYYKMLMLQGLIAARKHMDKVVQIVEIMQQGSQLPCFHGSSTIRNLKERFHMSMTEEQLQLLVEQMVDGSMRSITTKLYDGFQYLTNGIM

At PI4KIIIB, `COc1ccc(-c2sc(NC(=O)C3CCCC3)nc2C)cc1S(=O)(=O)N[C@H]1CC[C@H](O)CC1` [Compound S-9] gave a concentration for half-maximal inhibition (IC50) of less than 100 nM.
Same read-out and setting: the result for `COc1ccc(-c2sc(NC(=O)C3CCCC3)nc2C)cc1S(=O)(=O)Nc1ccc(CO)cc1` [Compound S-41] reads less than 100 nM; that for `COc1ccc(-c2sc(NC(=O)Cc3ccccc3)nc2C)cc1S(=O)(=O)Nc1ccc(O)cc1` [Compound S-49], less than 100 nM.
Same read-out and setting: the result for `COc1ccc(-c2sc(NCC3CCCCC3)nc2C)cc1S(=O)(=O)NC1CCNCC1` [Compound S-123] reads less than 100 nM.
Take `COc1ccc(-c2sc(NCC3CCCCC3)nc2C)cc1S(=O)(=O)NC1CCN(C2CCCC2)CC1` [Compound S-133]: the IC50 against PI4KIIIB is less than 100 nM.
On the same count and under the same terms, the result for `COc1ccc(-c2sc(NCC3CCCCC3)nc2C)cc1S(=O)(=O)NC1CCN(C(C)C)CC1` [Compound S-134] reads less than 100 nM; that for `COc1ccc(-c2sc(NCC3CCCCC3)nc2C)cc1S(=O)(=O)NC1CCN(C2CC2)CC1` [Compound S-135], less than 100 nM.
Still for that read-out and setting: the result for `COc1ccc(-c2sc(NCC3CCCCC3)nc2C)cc1S(=O)(=O)NC1CCN(C2CCCCC2)CC1` [Compound S-136] reads less than 100 nM; that for `COc1ccc(-c2sc(NC(=O)CC3CCCC3)nc2C)cc1S(=O)(=O)N[C@H]1CC[C@H](O)CC1` [Compound S-151], less than 100 nM; that for `COc1ccc(-c2sc(NC(=O)CC3CCCC3)nc2C)cc1S(=O)(=O)NCCCCO` [Compound S-152], less than 100 nM.
Take `COc1ccc(-c2sc(NC(=O)CC3CCCC3)nc2C)cc1S(=O)(=O)N1CC[C@@H](O)C1` [Compound S-153]: on PI4KIIIB, the IC50 is less than 100 nM.
Same read-out and setting: with `COc1ccc(-c2sc(NC3CCCCC3)nc2C)cc1S(=O)(=O)N[C@H]1CC[C@H](O)CC1` [Compound S-166] the figure was less than 100 nM; with `COc1ccc(-c2sc(NC3CCCCC3)nc2C)cc1S(=O)(=O)N[C@H]1CC[C@@H](O)CC1` [Compound S-167], less than 100 nM; with `COc1ccc(-c2sc(N[C@@H](C)C3CCCCC3)nc2C)cc1S(=O)(=O)N[C@H]1CC[C@H](O)CC1` [Compound S-183], less than 100 nM.
Compound `Cc1ccc(-c2sc(NC(=O)CC3CCCC3)nc2C)cc1S(=O)(=O)NC1CCNCC1` [Compound S-188] came in with an IC50 against PI4KIIIB of less than 100 nM.
`COc1ccc(-c2sc(N[C@H](C)C3CCCCC3)nc2C)cc1S(=O)(=O)N[C@@H]1CCNC1` [Compound S-197] yielded an IC50 against PI4KIIIB of less than 100 nM.
On the same count and under the same terms, with `COc1ccc(-c2sc(N[C@H](C)C3CCCCC3)nc2C)cc1S(=O)(=O)N[C@H]1CC[C@@H](O)CC1` [Compound S-198] the figure was 100 to 1000 nM; with `COc1ccc(-c2sc(N[C@H](C)C3CCCCC3)nc2C)cc1S(=O)(=O)N[C@H]1CCNC1` [Compound S-201], less than 100 nM; with `COc1ccc(-c2sc(NCCC3CCCCC3)nc2C)cc1S(=O)(=O)NC1CCNCC1` [Compound S-202], less than 100 nM.
The same measure, in the same setting: the result for `COc1ccc(-c2sc(N[C@@H](C)C3CCCCC3)nc2C)cc1S(=O)(=O)N[C@H]1CC[C@@H](O)CC1` [Compound S-206] reads 1000 to 10000 nM; that for `COc1ccc(-c2sc(NC(C)(C)C)nc2C)cc1S(=O)(=O)NC1CCNCC1` [Compound S-219], less than 100 nM; that for `COc1ccc(-c2sc(NCC(C)C)nc2C)cc1S(=O)(=O)N[C@H]1CC[C@H](O)CC1` [Compound S-221], less than 100 nM.
Still for that read-out and setting: with `COc1ccc(-c2sc(NCC(C)C)nc2C)cc1S(=O)(=O)N[C@H]1CC[C@@H](O)CC1` [Compound S-222] the figure was less than 100 nM; with `COc1ccc(-c2sc(NC(=O)CC3CCOCC3)nc2C)cc1S(=O)(=O)Nc1cccc(C)c1` [Compound S-226], less than 100 nM; with `COc1ccc(-c2sc(NC(=O)CC3CCOCC3)nc2C)cc1S(=O)(=O)Nc1ccccc1F` [Compound S-230], less than 100 nM.
Consider `COc1ncc(-c2sc(NC(=O)CC3CCOCC3)nc2C)cc1S(=O)(=O)Nc1ccc(F)cc1F` [Compound S-258], for which, on PI4KIIIB, the IC50 lay within 1000 to 10000 nM.
Take `COc1ccc(-c2sc(NC(C)C3CCOCC3)nc2C)cc1S(=O)(=O)Nc1ccccc1C` (centres unmarked) [Compound S-315]: the half-maximal effective concentration (EC50) in the experiment on HRV and in the experiment with EV71 was 1 to 100 nM each time.
As to `COc1ccc(-c2sc(NC(C)C3CCOCC3)nc2C)cc1S(=O)(=O)Nc1ccc(O)cc1C` (centres unmarked) [Compound S-317], the EC50 with HRV and with EV71 was 1 to 100 nM throughout.
`COc1ccc(-c2sc(NC(C)C3CCOCC3)nc2C)cc1S(=O)(=O)Nc1ccc(O)cc1Cl` (centres unmarked) [Compound S-318]: the EC50 in the experiment with HRV was 1 to 100 nM; with EV71 it was less than 1 nM.
The corresponding values for `COc1ccc(-c2sc(NC(C)C3CCOCC3)nc2C)cc1S(=O)(=O)Nc1ccc(O)cc1` (centres unmarked) [Compound S-319] are 1 to 100 nM and 1 to 100 nM.
The corresponding values for `COc1ccc(-c2sc(NC(C)C3CCOCC3)nc2C)cc1S(=O)(=O)Nc1cccc(O)c1` (centres unmarked) [Compound S-320] are 1 to 100 nM and 1 to 100 nM.
The corresponding values for `COc1ccc(-c2sc(NC(C)C3CCOCC3)nc2C)cc1S(=O)(=O)Nc1c(F)cccc1F` (centres unmarked) [Compound S-321] are 1 to 100 nM and 1 to 100 nM.
Take `COc1ccc(-c2sc(NC(C)C3CCOCC3)nc2C)cc1S(=O)(=O)Nc1c(F)cccc1Cl` (centres unmarked) [Compound S-322]: the EC50 in the experiment with HRV and with EV71 was 1 to 100 nM in each case.
Regarding `COc1ccc(-c2sc(NC(C)C3CCOCC3)nc2C)cc1S(=O)(=O)Nc1c(C)cccc1F` (centres unmarked) [Compound S-323], the EC50 with HRV and in the experiment on EV71 was less than 1 nM each time.
For the compound `COC(=O)c1ccc(NS(=O)(=O)c2cc(-c3sc(NC(C)C4CCOCC4)nc3C)ccc2OC)cc1` (centres unmarked) [Compound S-324], the concentration for a half-maximal effect (EC50) in the experiment on HRV and in the experiment with EV71 was 1 to 100 nM each time.
For the compound `COc1ccc(-c2sc(NC(C)C3CCOCC3)nc2C)cc1S(=O)(=O)Nc1ccc(C(=O)O)cc1` (centres unmarked) [Compound S-325], the EC50 in the experiment with HRV and in the experiment with EV71 was 1000 to 10000 nM throughout.
In the case of `COc1ccc(-c2sc(NC(C)C3CCOCC3)nc2C)cc1S(=O)(=O)NC1CCNCC1` (centres unmarked) [Compound S-326], the EC50 fell in the range of 100 to 1000 nM with HRV and 1 to 100 nM with EV71.
The corresponding values for `COc1ccc(-c2sc(NC(C)C3CCOCC3)nc2C)cc1S(=O)(=O)NC1CCC(OC(C)=O)CC1` (centres unmarked) [Compound S-327] are 1 to 100 nM and 1 to 100 nM.
On to `COc1ccc(-c2sc(NC(C)C3CCOCC3)nc2C)cc1S(=O)(=O)Nc1ncccc1C` (centres unmarked) [Compound S-329], for which the EC50 in the experiment with HRV and with EV71 was 1 to 100 nM throughout.
In the case of `COc1ccc(-c2sc(NC(C)C3CCOCC3)nc2C)cc1S(=O)(=O)Nc1ncccc1F` (centres unmarked) [Compound S-330], the EC50 with HRV lay in the range of 1000 to 10000 nM; in the experiment on EV71, 100 to 1000 nM.
The corresponding values for `COc1ccc(-c2sc(NC(C)C3CCOCC3)nc2C)cc1S(=O)(=O)Nc1cccnc1C` (centres unmarked) [Compound S-331] are 1 to 100 nM and 1 to 100 nM.
The corresponding values for `COc1ccc(-c2sc(NC(C)C3CCOCC3)nc2C)cc1S(=O)(=O)Nc1c(F)cncc1F` (centres unmarked) [Compound S-333] are 100 to 1000 nM and 100 to 1000 nM.
The corresponding values for `COc1ncc(-c2sc(NC(C)C3CCOCC3)nc2C)cc1S(=O)(=O)Nc1ccc(O)cc1F` (centres unmarked) [Compound S-334] are 1 to 100 nM and 1 to 100 nM.
As for `COc1ncc(-c2sc(NC(C)C3CCOCC3)nc2C)cc1S(=O)(=O)Nc1ccccc1C` (centres unmarked) [Compound S-335], the EC50 with HRV and in the experiment with EV71 was 1 to 100 nM each time.
